# Data: US20230021442A1, “PHENOTHIAZINE FERROPTOSIS INHIBITOR, PREPARATION METHOD THEREFOR AND APPLICATION THEREOF” (CHENGDU HENGHAO INNOVATIVE SCIENCE AND TECHNOLOGY CO., LTD., priority 2019, published 2023)
# pEC50: −log10 of the molar value.
# System: fibrosarcoma cell line
# Assay: screening model for ferroptosis, MTT cell viability assay with ferroptosis inducer Erastin
# Assay type: cell-based
# Conditions: Erastin 10 μM; 72 h; average of three tests
# Protocol: In this example, in order to study the inhibitor of ferroptosis, a screening model for ferroptosis was constructed in house, and the details are as follows:
# The screening model for ferroptosis mainly used the MTT cell viability assay. First, the fibrosarcoma cell line was cultured in a dish, and the cells in the logarithmic growth phase were seeded in a 96-well plate in specific numbers (3000-10000 cells/well), 100 μL per well, and then cultured in an incubator at 37° C. and 5% CO2 to allow the cells to adhere. After 24 h, 100 μL of compounds at certain concentrations prepared in the indicated medium and the ferroptosis inducer Erastin (final concentration of 10 μM) were added, and wells in triplicate were set up for each compound to ensure the accuracy of the results. A negative control group, positive control group (5 μM of ferrostain-1), blank control group and solvent control group were also set. After dosing, cells were placed in the incubator and cultured for 72h. […] The next day, the absorbance value at 570 nm was detected with a microplate reader to calculate the inhibition rate of the drug on ferroptosis. Generally, the absorbance value of the control group should be between 0.8-1.2 as a normal value. After obtaining the absorbance value data, the average value of wells in triplicate was calculated, and the inhibition rate was calculated using the following formula: […]
smiles,measurement,value
C=C(c1ccc2c(c1)Nc1ccccc1S2)c1cnc2c(cnn2C)c1 [Compound 28],pEC50,7.24
